From paper PMC7052086, “Functional characterization of NADPH-cytochrome P450 reductase and cinnamic acid 4-hydroxylase encoding genes from Scoparia dulcis L” (Botanical Studies, 2020)

Biological target: T1, SdC4H (CYP73A111) with SdCPR (Scoparia dulcis, UniProt U5N2L3)
T1 construct: gene C4H; full-length ORF in pET28b, His-tagged, E. coli BL21(DE3), crude soluble fraction; redox partner recombinant SdCPR (GenBank KF306080) added; with NADPH--cytochrome P450 reductase
Test: HPLC detection of 4-hydroxylated product
Assay type: biochemical
Settings: 1 mM trans-cinnamic acid, 2 mM NADPH, recombinant SdCPR, 50 mM phosphate pH 7.4, 30 °C, 30 min

T1 sequence (U5N2L3 entry or part of it): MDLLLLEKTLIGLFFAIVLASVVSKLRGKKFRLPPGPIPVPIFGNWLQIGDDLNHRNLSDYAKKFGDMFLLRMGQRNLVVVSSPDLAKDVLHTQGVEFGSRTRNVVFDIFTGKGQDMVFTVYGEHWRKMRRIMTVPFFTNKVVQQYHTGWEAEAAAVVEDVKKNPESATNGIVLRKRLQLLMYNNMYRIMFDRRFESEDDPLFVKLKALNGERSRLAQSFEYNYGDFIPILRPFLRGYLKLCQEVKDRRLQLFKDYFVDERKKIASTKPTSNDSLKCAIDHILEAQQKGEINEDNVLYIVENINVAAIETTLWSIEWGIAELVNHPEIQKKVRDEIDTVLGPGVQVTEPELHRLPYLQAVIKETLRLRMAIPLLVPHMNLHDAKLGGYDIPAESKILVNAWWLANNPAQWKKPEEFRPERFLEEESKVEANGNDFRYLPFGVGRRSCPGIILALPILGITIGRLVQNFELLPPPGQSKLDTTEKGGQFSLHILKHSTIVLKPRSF
T1 sequence (U5N352 entry or part of it, further chain): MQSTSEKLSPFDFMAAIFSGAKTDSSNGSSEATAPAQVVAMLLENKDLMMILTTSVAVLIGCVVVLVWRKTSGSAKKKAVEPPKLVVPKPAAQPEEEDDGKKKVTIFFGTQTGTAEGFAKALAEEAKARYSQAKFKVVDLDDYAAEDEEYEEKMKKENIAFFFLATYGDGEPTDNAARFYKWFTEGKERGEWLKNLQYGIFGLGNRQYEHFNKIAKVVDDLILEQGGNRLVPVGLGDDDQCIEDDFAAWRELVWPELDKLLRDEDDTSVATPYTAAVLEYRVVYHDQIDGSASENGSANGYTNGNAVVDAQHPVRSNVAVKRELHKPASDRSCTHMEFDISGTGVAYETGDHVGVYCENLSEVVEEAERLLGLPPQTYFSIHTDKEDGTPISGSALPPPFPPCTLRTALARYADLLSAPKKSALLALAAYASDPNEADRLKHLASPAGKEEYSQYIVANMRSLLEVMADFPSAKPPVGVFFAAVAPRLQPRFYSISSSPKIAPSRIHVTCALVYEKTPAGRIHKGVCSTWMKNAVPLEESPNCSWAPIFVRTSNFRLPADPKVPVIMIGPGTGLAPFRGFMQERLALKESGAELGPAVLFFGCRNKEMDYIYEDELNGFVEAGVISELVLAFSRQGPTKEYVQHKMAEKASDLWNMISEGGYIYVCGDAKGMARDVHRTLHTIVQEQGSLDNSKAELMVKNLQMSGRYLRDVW

## O=C(O)/C=C/c1ccccc1 [trans-cinnamic acid]
  HPLC detection of 4-hydroxylated product: the C4H activity (trans-cinnamic acid was 4-hydroxylated) of recombinant SdC4H was detected by HPLC
